From ChEMBL document CHEMBL5518235, “Identification of Novel Series of Potent and Selective Relaxin Family Peptide Receptor 1 (RXFP1) Agonists” (J Med Chem, 2024) come the findings set out here.

For series [1], the target named is T1, Relaxin receptor 1 (Homo sapiens, UniProt Q9HBX9).
T1 sequence (Q9HBX9 whole entry): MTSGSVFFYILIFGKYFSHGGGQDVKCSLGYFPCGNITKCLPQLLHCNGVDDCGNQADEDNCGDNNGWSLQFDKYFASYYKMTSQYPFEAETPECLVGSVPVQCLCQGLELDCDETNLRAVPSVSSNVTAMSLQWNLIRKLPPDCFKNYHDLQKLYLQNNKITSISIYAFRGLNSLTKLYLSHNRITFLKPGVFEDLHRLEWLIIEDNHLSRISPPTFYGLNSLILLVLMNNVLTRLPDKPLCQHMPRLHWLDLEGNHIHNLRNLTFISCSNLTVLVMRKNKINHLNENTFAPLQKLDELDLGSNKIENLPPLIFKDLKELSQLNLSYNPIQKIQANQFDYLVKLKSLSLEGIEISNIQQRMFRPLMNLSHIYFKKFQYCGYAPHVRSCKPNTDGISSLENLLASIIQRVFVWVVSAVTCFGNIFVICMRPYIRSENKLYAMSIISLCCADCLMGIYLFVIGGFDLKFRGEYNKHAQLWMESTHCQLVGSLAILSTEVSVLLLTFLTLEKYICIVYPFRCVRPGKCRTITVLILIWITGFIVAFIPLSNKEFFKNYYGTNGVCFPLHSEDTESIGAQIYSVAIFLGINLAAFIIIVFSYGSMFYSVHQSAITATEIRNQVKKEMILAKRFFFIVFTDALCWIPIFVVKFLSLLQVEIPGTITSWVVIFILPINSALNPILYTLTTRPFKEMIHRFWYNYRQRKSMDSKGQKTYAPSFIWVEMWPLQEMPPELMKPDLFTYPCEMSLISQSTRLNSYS
Nature of the series: Agonist activity at human RXFP1 expressed in T-Rex-CHO-K1 cells assessed as stimulation of cAMP production incubated for 45 mins by HTRF assay. In kind it is functional, cell-based. A general note: cAMP levels reflect the balance of adenylyl cyclase and phosphodiesterase activity.

Series [2] has as its target T2, Relaxin receptor 1 (Homo sapiens) (UniProt Q9HBX9).
T2 sequence (whole entry): T1 sequence (Q9HBX9 whole entry)
Briefly: Agonist activity at human RXFP1 expressed in T-Rex-CHO-K1 cells assessed as stimulation of cAMP production by measuring maximal efficacy at 50 uM incubated for 45 mins by HTRF assay relative to control. In kind it is functional, cell-based. The conditions noted are these: filed as agonist.

The nature of series [3]: Lipophilicity, logD of the compound in 1-octanol and phosphate buffer at pH 7.4 incubated for 3 hrs by shake flask method based LC/MS/MS analysis. The class given is physicochemical. The conditions noted are these: 1-octanol/phosphate buffer, pH 7.4.
A short description of series [4]: Metabolic stability in cryopreserved human hepatocytes assessed as intrinsic clearance measured per 10^6 cells at 1 uM after 120 mins by LC-MS/MS analysis. The conditions noted are these: hepatocytes, 2 h, 1 µM. The class given is ADME, cell-based, Hepatocyte.
Series [5] in a line: Metabolic stability in cryopreserved human hepatocytes assessed as unbound intrinsic clearance measured per 10^6 cells at 1 uM measured after 120 mins by LC-MS/MS analysis. In kind it is ADME, cell-based, Hepatocyte. As to conditions: 2 h.
Series [6] can be described thus: Cytotoxicity against human THP-1 cells assessed as reduction of cell viability incubated for 48 hrs by resazurin reduction assay. In kind it is toxicity, cell-based.
Series [7] is described as follows: Cytotoxicity against human HepG2 cells cultured under glucose condition assessed as reduction in cell viability. The class given is toxicity, cell-based.
Series [8] is described as follows: Cytotoxicity against human HepG2 cells cultured as C3a spheroids assessed as reduction in cell viability. In kind it is toxicity, cell-based.
Series [9] concerns the target Bile salt export pump (Homo sapiens, UniProt O95342). Briefly: Inhibition of BSEP (unknown origin) by membrane vesicle assay. In kind it is toxicity.
Series [10] has as its target Voltage-gated inwardly rectifying potassium channel KCNH2 (Homo sapiens, UniProt Q12809). Briefly: Inhibition of human ERG by automated electrophysiology recording. The class given is toxicity.
In series [11] the target is T3, Relaxin receptor 1 (Rattus norvegicus, UniProt Q6R6I6).
T3 sequence (Q6R6I6 whole entry): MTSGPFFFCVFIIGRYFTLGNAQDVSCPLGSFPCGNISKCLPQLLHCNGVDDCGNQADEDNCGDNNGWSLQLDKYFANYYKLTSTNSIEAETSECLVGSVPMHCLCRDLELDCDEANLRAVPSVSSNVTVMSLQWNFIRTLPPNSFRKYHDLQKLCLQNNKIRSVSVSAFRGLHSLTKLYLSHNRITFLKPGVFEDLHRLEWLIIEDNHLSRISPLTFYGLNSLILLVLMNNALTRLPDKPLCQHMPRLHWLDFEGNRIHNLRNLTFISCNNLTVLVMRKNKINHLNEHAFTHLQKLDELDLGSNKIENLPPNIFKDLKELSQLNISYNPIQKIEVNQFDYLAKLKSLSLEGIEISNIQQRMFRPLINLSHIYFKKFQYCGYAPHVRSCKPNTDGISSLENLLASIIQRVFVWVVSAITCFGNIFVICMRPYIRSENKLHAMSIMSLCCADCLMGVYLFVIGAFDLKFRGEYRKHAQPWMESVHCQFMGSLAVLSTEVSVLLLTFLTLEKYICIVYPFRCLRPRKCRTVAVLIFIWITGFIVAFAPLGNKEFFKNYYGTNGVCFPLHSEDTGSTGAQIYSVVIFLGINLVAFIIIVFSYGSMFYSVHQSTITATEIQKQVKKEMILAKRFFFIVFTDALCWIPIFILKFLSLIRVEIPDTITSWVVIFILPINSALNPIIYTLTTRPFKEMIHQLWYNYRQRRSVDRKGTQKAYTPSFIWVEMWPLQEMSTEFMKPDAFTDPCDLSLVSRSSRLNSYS
Briefly: Agonist activity at rat RXFP1 expressed in T-Rex-CHO-K1 cells assessed as stimulation of cAMP production incubated for 60 mins by HTRF assay. The class given is functional, cell-based.

Series [12] deals with T4, Relaxin receptor 1 (Rattus norvegicus) (UniProt Q6R6I6).
T4 sequence (whole entry): T3 sequence (Q6R6I6 whole entry)
Nature of the series: Agonist activity at rat RXFP1 expressed in T-Rex-CHO-K1 cells assessed as stimulation of cAMP production by measuring maximal efficacy incubated for 60 mins by HTRF assay relative to control. The class given is functional, cell-based. As to conditions: filed as agonist.

Series [13] can be described thus: Protein binding in rat plasma assessed as free fraction at 5 uM incubated for 18 hrs by equilibrium dialysis based LC-MS/MS analysis. In kind it is ADME, cell-free. On the technique in general: In equilibrium dialysis free small molecules cross a membrane that holds back macromolecules.
The nature of series [14]: Metabolic stability in Han Wistar rat hepatocytes assessed as intrinsic clearance measured per 10^6 cells at 1 uM after 120 mins by LC-MS/MS analysis. In kind it is ADME, cell-based, Hepatocyte. The conditions noted are these: read-out: CLH.
The nature of series [15]: Metabolic stability in Han Wistar rat hepatocytes assessed as unbound intrinsic clearance measured […] at 1 uM after 120 mins by LC-MS/MS analysis. The class given is ADME, cell-based, Hepatocyte. As to conditions: 2 h.
Series [16] is described as follows: Volume of distribution at steady state in Han Wistar rat at 0.73 micromol/kg, iv by LC-MS/MS analysis. The class given is ADME, organism-based. The conditions noted are these: in vivo, dose 0.73 µmol/kg, read-out: Vdss.
A short description of series [17]: Clearance in Han Wistar rat at 0.73 micromol/kg, iv by LC-MS/MS analysis. In kind it is ADME, organism-based. The conditions noted are these: in vivo, dose 0.73 µmol/kg.
Series [18] can be described thus: Half-life in Han Wistar rat at 0.73 micromol/kg, iv by LC-MS/MS analysis. As to conditions: in vivo, dose 0.73 µmol/kg. The class given is ADME, organism-based.
A short description of series [19]: Unbound Cmax in Sprague-Dawley rat at 3.5 mg/kg, iv administered via bolus followed by 6.0 mg/kg, iv administered via infusion for 3 hrs and measured 1 hrs post washout by LC-MS/MS analysis. The conditions noted are these: in vivo. The class given is ADME, organism-based.
In series [20] the target is T4, Relaxin receptor 1 (Rattus norvegicus). Nature of the series: In vivo agonist activity at RXFP1 in Sprague-Dawley rat assessed as hemodynamic effect by measuring increase in heart rate at 3.5 mg/kg, iv administered via bolus followed by 6.0 mg/kg, iv administered via infusion for 3 hrs and measured 1 hrs post washout. In kind it is functional, organism-based.
The target is the same in series [21]. Briefly: In vivo agonist activity at RXFP1 in Sprague-Dawley rat assessed as hemodynamic effect by measuring increase in blood pressure at 3.5 mg/kg, iv administered via bolus followed by 6.0 mg/kg, iv administered via infusion for 3 hrs and measured 1 hrs post washout. The class given is functional, organism-based.
A short description of series [22]: Cytotoxicity against human HepG2 cells cultured under galactose condition assessed as reduction in cell viability. The class given is toxicity, cell-based.

What is called EC50 is the concentration giving half of the maximal effect. A word on the Emax: it is the size of the effect at its maximum, as opposed to the concentration needed. For orientation: logD means the decadic logarithm of the distribution of all forms, ionised or not, between an organic phase and buffer at a given pH. Low readings indicate a more hydrophilic compound, high ones a more lipophilic compound. As a reminder, the IC50 is the concentration that inhibits the measured activity by half. In general, fraction unbound refers to the share of the substance not bound to proteins or other matrix. What is called clearance is the rate of elimination divided by the concentration. Broadly, the half-life is how long it takes for the measured level to halve. Lower therefore signals rapid decline.

The source made the active and inactive calls. The calls are words filed in the database; no cut-off is given here.

Chain of Bile salt export pump (O95342 whole entry): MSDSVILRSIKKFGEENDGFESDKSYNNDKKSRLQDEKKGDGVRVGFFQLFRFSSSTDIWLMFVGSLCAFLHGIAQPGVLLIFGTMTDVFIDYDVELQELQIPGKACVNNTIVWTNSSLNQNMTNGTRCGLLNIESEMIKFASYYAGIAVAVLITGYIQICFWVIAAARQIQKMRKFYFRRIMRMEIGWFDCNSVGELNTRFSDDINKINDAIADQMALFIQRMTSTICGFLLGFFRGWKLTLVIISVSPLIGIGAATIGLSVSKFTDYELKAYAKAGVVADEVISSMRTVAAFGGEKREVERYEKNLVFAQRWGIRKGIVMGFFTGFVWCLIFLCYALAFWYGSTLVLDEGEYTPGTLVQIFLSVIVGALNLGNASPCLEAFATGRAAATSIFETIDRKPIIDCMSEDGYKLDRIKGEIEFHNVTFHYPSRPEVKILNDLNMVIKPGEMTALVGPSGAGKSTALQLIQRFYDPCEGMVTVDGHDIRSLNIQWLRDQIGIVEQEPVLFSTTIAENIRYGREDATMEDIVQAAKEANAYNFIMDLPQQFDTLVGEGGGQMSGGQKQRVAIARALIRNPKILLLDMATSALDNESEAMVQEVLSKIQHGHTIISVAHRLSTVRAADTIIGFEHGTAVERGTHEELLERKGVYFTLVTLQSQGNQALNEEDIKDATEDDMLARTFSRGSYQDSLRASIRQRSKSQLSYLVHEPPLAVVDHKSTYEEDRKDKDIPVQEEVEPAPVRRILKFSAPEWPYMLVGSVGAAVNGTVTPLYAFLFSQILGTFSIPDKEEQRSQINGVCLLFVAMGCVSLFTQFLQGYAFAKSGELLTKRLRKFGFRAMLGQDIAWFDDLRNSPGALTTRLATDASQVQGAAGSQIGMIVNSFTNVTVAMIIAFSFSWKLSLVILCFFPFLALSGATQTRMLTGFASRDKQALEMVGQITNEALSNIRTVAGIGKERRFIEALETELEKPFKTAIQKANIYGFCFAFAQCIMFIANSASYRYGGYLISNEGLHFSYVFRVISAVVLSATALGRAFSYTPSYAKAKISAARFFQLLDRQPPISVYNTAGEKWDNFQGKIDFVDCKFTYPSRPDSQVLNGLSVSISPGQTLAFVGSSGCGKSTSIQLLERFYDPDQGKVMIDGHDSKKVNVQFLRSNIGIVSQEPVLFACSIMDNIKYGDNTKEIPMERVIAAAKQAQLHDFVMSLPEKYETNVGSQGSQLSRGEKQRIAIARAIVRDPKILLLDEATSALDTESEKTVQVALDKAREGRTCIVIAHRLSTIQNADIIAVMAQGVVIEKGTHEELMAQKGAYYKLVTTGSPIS
Chain of Voltage-gated inwardly rectifying potassium channel KCNH2 (Q12809 whole entry): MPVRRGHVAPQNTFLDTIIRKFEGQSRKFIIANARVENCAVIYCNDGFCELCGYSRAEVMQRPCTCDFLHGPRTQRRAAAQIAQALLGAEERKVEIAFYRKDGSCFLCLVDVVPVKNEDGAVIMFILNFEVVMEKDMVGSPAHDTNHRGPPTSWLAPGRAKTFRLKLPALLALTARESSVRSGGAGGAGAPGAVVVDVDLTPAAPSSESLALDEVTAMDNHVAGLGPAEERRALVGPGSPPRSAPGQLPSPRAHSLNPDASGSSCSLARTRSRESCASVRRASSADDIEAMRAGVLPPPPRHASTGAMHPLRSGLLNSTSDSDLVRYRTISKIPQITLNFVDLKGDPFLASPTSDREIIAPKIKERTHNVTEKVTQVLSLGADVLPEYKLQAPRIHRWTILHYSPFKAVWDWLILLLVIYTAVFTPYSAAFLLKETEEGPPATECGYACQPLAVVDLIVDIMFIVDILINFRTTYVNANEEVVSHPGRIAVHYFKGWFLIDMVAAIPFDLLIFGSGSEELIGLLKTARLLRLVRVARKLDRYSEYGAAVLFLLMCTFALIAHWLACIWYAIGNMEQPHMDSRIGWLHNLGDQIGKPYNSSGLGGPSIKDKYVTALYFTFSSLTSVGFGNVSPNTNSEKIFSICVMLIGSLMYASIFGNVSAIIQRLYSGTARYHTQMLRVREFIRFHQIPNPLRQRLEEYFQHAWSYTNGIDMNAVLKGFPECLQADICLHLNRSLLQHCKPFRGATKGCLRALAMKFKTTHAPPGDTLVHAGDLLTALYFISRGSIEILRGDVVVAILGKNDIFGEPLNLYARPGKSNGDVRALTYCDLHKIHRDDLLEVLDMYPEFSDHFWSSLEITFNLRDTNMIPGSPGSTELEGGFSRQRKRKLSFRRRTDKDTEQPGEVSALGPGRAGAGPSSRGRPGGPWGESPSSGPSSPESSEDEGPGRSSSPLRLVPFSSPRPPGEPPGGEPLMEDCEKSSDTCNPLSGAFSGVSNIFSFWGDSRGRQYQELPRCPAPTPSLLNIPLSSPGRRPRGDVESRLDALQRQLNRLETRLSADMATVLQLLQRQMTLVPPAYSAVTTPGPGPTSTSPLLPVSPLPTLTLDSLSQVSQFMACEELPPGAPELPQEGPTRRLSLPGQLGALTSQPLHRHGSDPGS

For `COc1cc(F)c(O[C@H]2CC[C@@](C)(C(=O)O)CC2)cc1C(=O)N[C@H]1[C@@H]2CC[C@@H](C2)[C@H]1C(=O)Nc1ccc(F)c(S(F)(F)(F)(F)F)c1`, the figures for the EC50 in series [1] and in series [11] were 3.98 µM and 7.94 µM, respectively. Further, the Emax in [2] is 103%; in series [12], 128%. Also, the logD at 3 h in [3] amounted to 4.5. In [4], the CLH turned out to be 49 µL/min/1e6 cells. The CL free in series [5] was 7 10^3uL/min; in series [15], 2 µL/min. Further, the IC50 at 48 h in series [6] is 11 µM. Besides, the IC50 in series [7] is 134 µM; in series [8], 34 µM; in [9] it was 97 µM; in [10], 33 µM; in [22], 122 µM. Also, the unbound share (fraction unbound) at 18 h, 5 µM in [13] came to 0.0013. The hepatocyte CLint at 1 µM in series [14] was found to be 14 µL/min/1e6 cells. Further, the Vd in series [16] came to 1.5 L/kg. In [17], this compound came in with a clearance of 14 mL/min/kg. In series [18], this compound showed a half-life of 2.3 h. The compound also returned a fCmax in series [19] of 12 nM. In addition, the result in [20] and in series [21] was inactive.
